# From ChEMBL document CHEMBL5303711, “ECBD screening data for assay EOS300108” (2023)
# Activity calls are given as the source filed them. No rule for the calls is given here.
# Test: Cytotoxicity activity against human HepG2 cells assessed by CellTiter-Glo luminescent cell viability assay.
# Assay type: toxicity, cell-based
# Parameters: assay stage confirmatory assay, source tissue liver
# Settings: HepG2 cells, read-out: IC50 relative
row,Compound,CC50
1,O=C(NOCC1CC1)c1ccc(F)c(F)c1Nc1ccc(I)cc1Cl [CI-1040],0.3 µM (active)
2,CC(C)c1ccc(CNCCN2CCCCC2CO)cc1 (stereo not drawn),4.3 µM (active)
3,COc1cccc(OCCCN)c1-c1cc(Nc2cnc(C#N)cn2)n[nH]1,0.3 µM (active)
4,Cc1nc(NC(=O)c2ccc(C)c(Br)c2)n(C)n1,11.7 µM (active)
5,Nc1nc(Nc2ccc3c(c2)OCCO3)nc2ccccc12,8.7 µM (active)
6,N#Cc1c(C2CCNCC2)cc(-c2c(O)cccc2OCC2CC2)nc1N,5.6 µM (active)
7,CN1CCC(c2c[nH]c3ccc(NC(=O)c4ccc(F)cc4)cc23)CC1,14.2 µM (inactive)
8,Cc1cc(O)c(-c2ccc([C@@H](C)CN(C)C)cc2)c2c1[nH]c(=O)c1sccc12,0.1 µM (active)
9,Cc1[nH]c(C(=O)Nc2ccc(C#N)cc2)c(C)c1S(=O)(=O)N1CCCC1,17.9 µM (inactive)
10,C[C@@H]1CNCCN1S(=O)(=O)c1cccc(Br)c1,50 µM (inactive)
11,CCOc1ccccc1NC(=O)COc1cccc2c(=O)n(C)ccc12,1.4 µM (inactive)
12,CO[C@H]1C[C@@H]2CC[C@@H](C)[C@@](O)(O2)C(=O)C(=O)N2CCCC[C@H]2C(=O)O[C@H]([C@H](C)C[C@@H]2CC[C@@H](O)[C@H](OC)C2)CC(=O)[C@H](C)/C=C(\C)[C@@H](O)[C@@H](OC)C(=O)[C@H](C)C[C@H](C)/C=C/C=C/C=C/1C [SIROLIMUS],17.5 µM (inactive)
13,CC(C)(C)c1cc(C=C(C#N)C#N)cc(C(C)(C)C)c1O [TYRPHOSTIN A9],0.8 µM (active)
14,CCOc1cc(F)ccc1NC(=O)c1csc(-c2cnn(C)c2)n1,0.4 µM (active)
15,CC(=O)NCc1ccc(C(=O)Cn2ncc(Cl)c(Cl)c2=O)cc1,8 µM (active)
16,N#Cc1ccc(NC(=O)NCc2cnc3scc(-c4ccc(Br)cc4)n23)cc1,35 µM (active)
17,Clc1ccc(COC(Cn2ccnc2)c2ccc(Cl)cc2Cl)c(Cl)c1 (stereo not drawn) [MICONAZOLE NITRATE],12 µM (active)
18,C[C@]1(O)C[C@@H](c2nc(-c3ccc4ccc(-c5ccccc5)nc4c3)c3c(N)nccn32)C1 [LINSITINIB],5.3 µM (active)
19,CCc1ccc(-c2cc(C(=O)N3C[C@H]4CC[C@@H]3CN(C)C4)[nH]n2)cc1,13.9 µM (inactive)
20,Cc1cc(C)cc(N2CCC(NCC3CCCNC3)CC2)c1 (stereo not drawn),8.2 µM (active)
21,CC1(C)CC=C(c2nc(C3CC(C)(C)OC(C)(C)C3)ccc2NC(=O)c2nc(C#N)c[nH]2)CC1 [EDICOTINIB],2.8 µM (active)
22,Cc1ccc([C@H](CC(=O)c2ccco2)SCCO)cc1,11.4 µM (active)

row,Compound,CC50
1,O=C(CCN1CCCCC1)c1cc2ccccc2o1,21.1 µM (inactive)
2,O=C(CN1C(=O)COc2ccc(S(=O)(=O)N3CCCCCC3)cc21)NCc1ccccc1,50 µM (inactive)
3,Cc1cc(NC(=O)CN2CCCC[C@@H]2C)n(C)n1,50 µM (inactive)
4,O=c1cc(-c2ccc(O)c(O)c2)oc2cc(O[C@@H]3O[C@H](CO)[C@@H](O)[C@H](O)[C@H]3O)cc(O)c12 [GALUTEOLIN],5.7 µM (inactive)
5,Clc1ccc2oc(C3CCNCC3)cc2c1,10.1 µM (active)
6,CCc1ccc(-c2cc3c(=O)n(CC(=O)NCCN(CC)CC)ncn3n2)cc1,6.2 µM (active)
7,O=C(Nc1ccc2c(c1)OCCO2)N1CCN(c2ccnc(N3CCCCC3)n2)CC1,12.1 µM (active)
8,Cc1cc(N2CCNCC2)nc2c(C)cccc12,11.1 µM (active)
9,C=CCNc1c(O)cc2c(O)c1C[C@@H](C)C[C@H](OC)[C@H](O)[C@@H](C)/C=C(/C)[C@H](OC(N)=O)[C@@H](OC)/C=C\C=C(\C)C(=O)N2,0.1 µM (active)
10,NCc1ccc(-c2ccccc2)s1,5.9 µM (active)
11,COc1ccc(-c2ccc(CNCCNCCO)o2)cc1Cl,11.4 µM (active)
12,CCOc1nc2cccc(C(=O)OC(C)OC(=O)OC3CCCCC3)c2n1Cc1ccc(-c2ccccc2-c2nnn[nH]2)cc1 (stereo not drawn) [CANDESARTAN CILEXETIL],10.7 µM (active)
13,CC(C)NC(=O)N1CC(Oc2ccc(-c3noc(C4CC4)n3)cc2)C1,2.6 µM (active)
14,OCc1cc(C(O)CNCCCCCCOCCCCc2ccccc2)ccc1O (stereo not drawn) [SALMETEROL],6.6 µM (active)
15,CCOc1ccc(-n2ccnc(NCc3ccc(OC)c(OC)c3)c2=O)cc1,5.1 µM (active)
16,C=CC(=O)N1CCN(CCCn2c(=O)c(-c3c(Cl)c(OC)cc(OC)c3Cl)cc3cnc(NC)nc32)CC1 [PRN-1371],9.6 µM (active)
17,Cc1cn(CC(=O)c2ccc(NC(=O)CC(C)C)cc2)cc(Br)c1=O,22.2 µM (inactive)
18,Cc1cc(C)nc(-n2ncc(Cl)c(Cl)c2=O)n1,3.8 µM (active)
19,CCn1c(Cn2ncc(Cl)c(Cl)c2=O)nc2cc(F)ccc21,3 µM (active)
20,CCN(CC)C(=O)N1CC(Oc2ccc(-c3noc(-c4cccnc4)n3)cc2)C1,2.2 µM (active)
21,Cc1cc([C@H]2CCCN(CC(=O)Nc3nccs3)C2)n[nH]1,6.6 µM (inactive)
22,COc1cc2c(Oc3ccc4[nH]c(C)cc4c3F)ncnc2cc1OCCCN1CCCC1 [CEDIRANIB],2.5 µM (active)

row,Compound,CC50
1,CCOc1ncccc1C(=O)Nc1cc(F)ccc1F,1.3 µM (active)
2,Nc1ncccc1-c1nc2ccc(-c3ccccc3)nc2n1-c1ccc(C2(N)CCC2)cc1 [MIRANSERTIB],4.2 µM (active)
3,COc1ccc(CNc2nc(N(CCO)CCO)nc3c2ncn3C(C)C)cc1,0.8 µM (active)
4,COc1ccc(C(=O)N(C)C)cc1NC(=O)c1ccc2ccccc2n1,8.9 µM (active)
5,COc1ccccc1S(=O)(=O)Nc1ccc2c(c1)CN(C)C(=O)N2,3.7 µM (active)
6,O[C@H]1C[C@@H](c2cc(N3CCC(Oc4ccccc4Cl)CC3)ncn2)C1,5.6 µM (active)
7,Cc1sc2c(c1C)C(c1ccc(Cl)cc1)=N[C@@H](CC(=O)NCCCCCCCCNC(=O)COc1cccc3c1C(=O)N(C1CCC(=O)NC1=O)C3=O)c1nnc(C)n1-2 (stereo partly drawn),< 0.1 µM (active)
8,Cc1ccc(NC(=O)Cc2ccc(-n3cccn3)cc2)nc1,0.4 µM (active)
9,Nc1nc(S)c2ncn(C3OC(CO)C(O)C3O)c2n1 (stereo not drawn),2.5 µM (active)
10,c1cc(NC2CCNCC2)nc(-c2cnc3ccccn23)c1,4.5 µM (active)
11,CCN1CCN(CCCNC(=O)c2cc3c(=O)n(C)c4ccccc4c3s2)CC1,4.1 µM (active)
12,Cc1ccc(C(=O)Nc2ccc(Oc3cc4cnn(C)c4cc3-c3cn[nH]c3)c(F)c2)c(=O)n1-c1ccc(F)cc1 [MERESTINIB],2.9 µM (active)
13,COc1ccc(OCCCN2CCN(S(=O)(=O)c3ccc(S(N)(=O)=O)cc3)CC2)cc1,15.9 µM (inactive)
14,Cc1cc(C)cc(NC(=O)N(C)CCc2scnc2C)c1,50 µM (inactive)
15,C[C@@H]1C[C@@H]([C@H](O)CC2CC(=O)NC(=O)C2)C(=O)[C@@H](C)C1 [CYCLOHEXIMIDE],0.4 µM (active)
16,O=C(Nc1ccc(Cn2cnc3ccccc32)cc1)c1ccc(=O)[nH]n1,9.7 µM (inactive)
17,O=C(Cc1ccsc1)Nc1nc(-c2ccccn2)cs1,3.2 µM (active)
18,CN(c1ccccc1CNc1nc(Nc2ccc3c(c2)CC(=O)N3)ncc1C(F)(F)F)S(C)(=O)=O,1 µM (active)
19,Cc1cccc(C(=O)Nc2nc3ccccc3[nH]2)n1,4.4 µM (active)
20,Cc1cc(OCC(O)CN2CCN(C)CC2)cc(C)c1Cl (stereo not drawn),13.9 µM (inactive)
21,Clc1ccc(-c2cnc(CN3CC4(CCNCC4)[C@H]4COC[C@H]43)o2)cc1,12.8 µM (active)
22,Cc1cc(SCC#N)n2ncc(-c3ccccc3)c2n1,0.9 µM (active)

row,Compound,CC50
1,N#Cc1cnc2c(Cl)cc(NCc3cn(CCN4CCCCCC4)nn3)cc2c1Nc1ccc(F)c(Cl)c1,11.6 µM (active)
2,CCN1CCN(C(=O)C2CCN(c3nn4cc(-c5ccc(C)cc5)nc4s3)CC2)CC1,9.5 µM (active)
3,C#CC(=O)NCCNc1nc(C)nc(C)c1Br,0.8 µM (active)
4,C#CCNC(=O)c1ccccc1NCc1ccc(C#N)cc1OC,1 µM (active)
5,CC(C)c1c(O)cc(/C=C/c2ccccc2)cc1O [TAPINAROF],8.9 µM (active)
6,CCn1c(SCc2cc(=O)n3ccsc3n2)nc2sc(C)c(C)c2c1=O,20.2 µM (inactive)
7,CN(c1ccc(NC(=O)Nc2ccc(OC(F)(F)F)cc2)cc1)c1ccnc(Nc2cccc(S(N)(=O)=O)c2)n1 [GW806742X],0.9 µM (active)
8,CCc1ccc(NC(=O)N2CCN(c3cc(-n4ccc(C)n4)ncn3)CC2)cc1,46.2 µM (inactive)
9,CCCCCCCCCCCCC/C=C/[C@@H](O)[C@@H](N)CO [SPHINGOSINE],11.2 µM (active)
10,CC1(C)N=C(N)N=C(N)N1c1cccc(Cl)c1,0.9 µM (active)
11,NC(=O)Nc1cc(-c2cccc(F)c2)sc1C(=O)N[C@H]1CCCNC1 [AZD-7762],0.9 µM (active)
12,CN[C@@H](C)C(=O)N[C@H](C(=O)N1CCC[C@H]1C(=O)N[C@H]1c2ccccc2C[C@H]1OCC#CC#CCO[C@@H]1Cc2ccccc2[C@@H]1NC(=O)[C@@H]1CCCN1C(=O)[C@@H](NC(=O)[C@H](C)NC)C1CCCCC1)C1CCCCC1,3.7 µM (active)
13,O=C(NCc1ccc(S(=O)(=O)c2cc(F)cc(F)c2)cc1)c1ccc2nccn2c1,< 0.1 µM (active)
14,CCC(C)(C)C(=O)O[C@H]1C[C@@H](C)C=C2C=C[C@H](C)[C@H](CC[C@@H]3C[C@@H](O)CC(=O)O3)[C@H]21 [SIMVASTATIN],17.1 µM (inactive)
15,N[C@@H](Cc1ccccc1)C(=O)N1C/C(=C\c2ccc(Cl)c(Cl)c2)C(=O)/C(=C/c2ccc(Cl)c(Cl)c2)C1,7.9 µM (active)
16,CCOc1cc2ncc(C#N)c(Nc3ccc(OCc4ccccn4)c(Cl)c3)c2cc1NC(=O)/C=C/CN(C)C [NERATINIB],9.9 µM (inactive)
17,Fc1ccc(C(CCNC[C@@H]2[C@H]3CNC[C@@H]23)c2ccco2)cc1 (stereo partly drawn),7.1 µM (active)
18,CCN(C)C[C@H]1CCN(CCCC2CCCCC2)C1,4.5 µM (active)
19,Cc1ccc(NC(=O)NC[C@@H](C(C)C)N2CCN(C)CC2)cc1Cl,11.3 µM (active)
20,COc1ccc(CCN2Cc3ccc(N)cc3C2)cc1,20.2 µM (inactive)
21,CC(C)Oc1ccc(-c2c[nH]cc2CN(C)CCN)cc1,23.3 µM (inactive)
22,Oc1ccccc1N1CCN(C[C@H](O)COc2ccc(Oc3ccccc3)cc2)CC1,19.2 µM (inactive)
